In paper PMC6943417, “Housefly Pupae-Derived Antioxidant Peptides Exerting Neuroprotective Effects on Hydrogen Peroxide-Induced Oxidative Damage in PC12 Cells” (Molecules, 2019):
Where no end group is shown, it is not given here.

Tested on: pepsin and pancreatin
Format: in vitro ADME
Protocol: The ABTS cation radical scavenging activity assay was conducted according to the manufacture instruction. […] The ABTS cation radical scavenging activity was calculated by the following formula: ABTS cation radical scavenging activity (%) = (1 − A1/A0) × 100%(2) where A1 and A0 were the absorbances of sample group and control group, respectively. The sample solution of control group was replaced with deionized water. Ascorbic acid was used as a positive control.
Thermal stability of synthetic peptides was determined according to the method of Yarnpakdee et al. with minor modifications. The synthetic peptides were respectively incubated at 25, 60, 70, 80, 90 °C for 30 min and then measured their scavenging ability of ABTS cation radical. The ability of synthetic peptides against pH treatments was measured according to Zhu et al.. In brief, pH of peptide solution was adjusted to 1, 3, 5, 7, 9, 11, incubated at room temperature for 1 h, and then ABTS cation radical scavenging activity of the treated peptides was measured. A two-stage digestion of protease in vitro (pepsin-digestion for 1 h and then pancreatin-digestion for 2 h at 37 °C) was performed as described by Zhang et al.. The ABTS cation radical scavenging ability was evaluated to assess the peptides stability against GI digestion.

| change in ABTS radical scavenging ability after simulated GI digestion | Sequence |
| --- | --- |
| slight decrease | DFTPVCTTELGR [DR12, Asp-Phe-Thr-Pro-Val-Cys-Thr-Thr-Glu-Leu-Gly-Arg] |
| no significant change | ARFEELCSDLFR [AR12, Ala-Arg-Phe-Glu-Glu-Leu-Cys-Ser-Asp-Leu-Phe-Arg] |
